Test results taken from article PMC9680484, “Synthesis, Biophysical Interaction of DNA/BSA, Equilibrium and Stopped-Flow Kinetic Studies, and Biological Evaluation of bis(2-Picolyl)amine-Based Nickel(II) Complex” (Biomimetics, 2022).
Values after ≈ are worked out from the molar mass of the structure shown. Values joined by “and” are separate entries in the source; they are usually repeats but may differ in a detail not shown here. Identical values can stand only once.

Tests used:
BSA [1] = target: T1, BSA (Bos taurus, UniProt P02769); experiment: BSA UV-vis absorption titration (Benesi-Hildebrand binding constant); parameters: species or system bovine
Procedure: Interactions between the most common blood protein, serum albumin, and complexes have sparked a lot of interest recently because of their structural similarity to human serum albumin. To better understand the mechanism of interaction between BPA and its nickel(II) complex NiBPA with BSA, fluorescence quenching studies were carried out. BSA’s fluorescence is due to intrinsic protein characteristics, such as the presence of tryptophan and tyrosine residues. Variations in the emission spectra caused by protein conformational changes, subunit interaction, substrate binding, or denaturation are largely attributed to the tryptophan residue. As a result, BSA fluorescence behavior can provide valuable insight into protein structure, dynamics, and folding. Fluorescence titration experiments were performed at room temperature with BSA and different concentrations of BPA and NiBPA in the range 200–600 nm (λex. 280 nm). A slight red shift (40 percent, BPA; 65 percent, NiBPA; Figure 3) reduced the intensity of BSA fluorescence at 343 nm. The presence of the protein’s active site in a hydrophobic environment causes the redshift. […] The quenching mechanism can be set to either static or dynamic operation. […] The binding constants for BPA and NiBPA were calculated using Equation (1) and found to be 0.4 × 10^4 M^−1 and 0.82 × 10^4 M^−1, respectively (Table 1). […]

[2] = tested on: human liver cancer (HepG2) cell lines; experiment: MTT cytotoxicity assay, liver cancer cells; type: cell-based; settings: Homo sapiens, HepG2, 24 h
Procedure: Methyl thiazolyl tetrazolium (MTT) colorimetry [47] was used to assess the cytotoxicity of BPA and one for human liver cancer (HepG2) cell lines. MTT can be converted into formazan by living cells with an active metabolism, but this ability is lost in dying cells. Therefore, in this study, the MTT assay was used to determine how many viable cells there were. Before the investigated compounds were added, cells were cultured in 96-well flat-bottomed microtiter plates at a density of 1 × 10^4 cells/well (100 l/well) for 70 to 80 percent confluent cultures, and the cultures were then incubated at 37 °C and 5 percent CO2 for 24 h. The compounds were used in a range of concentrations (31.2, 62.5, 125.0, 250.0, 500.0, and 1000.0 g/mL), and the cells were cultured for 24 h. Then, 10 µl of the 12 mM MTT stock solution (5 mg/mL MTT in sterile PBS) was added to each well at the conclusion of the incubation period. After that, the plate was incubated at 37 °C for 4 h. […] On an ELISA reader, the absorbance at 570 nm was read (StatFax-2100, Awareness Technology, Inc., USA). The percentage of cells inhibited was calculated using: % CellInhibition=100−T−T0/C−T0 where T is the optical density of the test sample, To is the optical density at time zero, and C is the optical density of the control.

E. faecalis = experiment: Antibacterial MIC/MBC, E. faecalis; type: cell-based; settings: Gram-positive
ct-DNA [3] = experiment: Stopped-flow kinetics of ct-DNA binding
Procedure: (§1) The kinetics of protein and DNA binding was measured using an Applied KinetAsyst SF-61DX2 stopped-flow instrument. At 25 °C, equal volumes of compounds against protein and DNA solutions were rapidly mixed in the stopped-flow instrument. The binding reactions were studied using a 10-fold excess of the ligand BPA and NiBPA under pseudo-first-order conditions. For each experimental condition, all recorded rate constants were taken into account, from which the mean values of at least three independent kinetic runs were calculated.
(§2) Because many medicines with lower cellular toxicity have a slow DNA dissociation rate, several factors, such as the strength of binding and the drug’s affinity for DNA, as well as the kinetic stability of DNA-drug adducts, may contribute to antitumor effectiveness. The stopped-flow technique was used to study in-vitro protein/DNA binding to BPA and propose a mechanism in order to obtain such information. The kinetic traces were recorded at 265 nm within 100 s (BPA) and 5 s (NiBPA), respectively, to capture the interaction process with BSA. […] In the case of ct-DNA interaction, the kinetic traces were recorded at 290 nm, and both BPA and NiBPA followed a similar pattern since kinetic traces for BPA and NiBPA were collected within 100 s, covering the entire interaction process. […] Over the concentration range of BPA and NiBPA, the study of kinetic traces performed under pseudo-first-order conditions may be fitted to two kinetic phases (Figure 7) evaluated using the following Equation (3):(3) A=a1e^−kobs1t1+a2e^−kobs2t2+A0
The interaction process involves at least two steps, and the stopped-flow records the two kinetic phases as a fast binding (rate constant kobs1) followed by a slow first-order isomerization process (rate constant kobs2). […] Both kon and koff were used to calculate the equilibrium association constants Kaff [kon/koff M^−1] and the equilibrium dissociation constants Kd [koff/kon M]. […]

ct-DNA [4] = experiment: ct-DNA electronic absorption titration; type: binding; settings: phosphate buffer pH 7.2
Procedure: Electronic absorption measurements were performed with a constant concentration of ctDNA and increasing concentrations of BPA and NiBPA (Na-phosphate buffer solution, pH 7.2). […] Intrinsic fluorescence was measured with the ct-DNA solution at the excitation wavelength (ex, 330), and emission spectra were recorded at 550–700 nm after aliquot addition of BPA and NiBPA.
Absorption titration information was depicted in Figure 6 to understand the mode of interaction of complexes with ct-DNA. Increased addition of a solution of BPA to a solution of ct-DNA causes hyperchromic for the band at 264 nm with a blue shift of 5 nm (259 nm), as shown in the absorption titration spectrum (Figure 6). The band at 278 nm, on the other hand, was hypochromic with a small blue shift of 2 nm (276 nm). The presence of […] in the medium was indicated by the isosbestic point in the titration curve at 274 nm. […] The hydrogen bonds formed with the –OH and SH groups of BPA and NiBPA are caused by the presence of many accessible hydrogen binding sites in the DNA major and minor grooves. The binding constants for BPA (0.16 × 10^5 M^−1) and NiBPA (0.52 × 10^5 M^−1) are similar to those of well-known groove binding rather than classical intercalation, implying that NiBPA interacts with ct-DNA much more strongly than BPA under investigation.

[5] = MTT cytotoxicity assay, normal cells; type: cell-based; settings: Homo sapiens, WI-38, 24 h
E. coli = experiment: Antibacterial MIC/MBC, E. coli; type: cell-based; settings: Gram-negative
Procedure: (§3) Several studies have shown that organic compound coordination with a metallic element results in significant changes in the biological activity of both the organic ligand and the metal. As a result, BPA and its nickel complex NiBPA were tested in vitro for antibacterial activity against Gram-positive (S. aureus and S epidermidis) and Gram-negative (P. mirabilis and E. coli) bacteria. Figure 10 depicts the antibacterial function of BPA and NiBPA as the diameter of the growth-inhibition region in millimeters. […] The MBC is identified by determining the lowest concentration of antibacterial agents that reduces the viability of the initial bacterial inoculum by 99.9%. The MIC or MBC strain was chosen based on the value agreed upon on two or more occasions. The antibiotic tobramycin (TOB) was used to control the situation. The inhibition zone, as well as the MIC and MBC data, leads to the following conclusions. […] This is explained by the metal ion’s polarity and cationic charge, as NiBPA has a cationic property with two positive charges. […] The interaction between Gram-negative bacteria and NiBPA was stronger than that of Gram-positive bacteria due to the higher negative charge on the cell surface, despite the presence of an outer membrane in Gram-negative bacteria (see Figure 11).

S. aureus = experiment: Antibacterial MIC/MBC, S. aureus; type: cell-based; settings: Gram-positive
Procedure: as §3

BSA [6] = target: T1, BSA; experiment: Stopped-flow kinetics of BSA binding; parameters: species or system bovine
Procedure: as §1, §2
The interaction process involves at least two steps, and the stopped-flow records the two kinetic phases as a fast binding (rate constant kobs1) followed by a slow first-order isomerization process (rate constant kobs2). […] Both kon and koff were used to calculate the equilibrium association constants Kaff [kon/koff M^−1] and the equilibrium dissociation constants Kd [koff/kon M].
The difference between the free energy, G, of BSA molecules alone in the solution and when bound together is related to the equilibrium dissociation constant, Kd1. Equation (4) gives the binding free energy change Gbind. (4) ΔGbind=RT·ln(Kd)

BSA [7] = target: T1, BSA; experiment: BSA fluorescence quenching titration (Stern-Volmer / Scatchard); type: binding, bovine; settings: for KSV: Stern-Volmer constant
Procedure: The excitation and emission wavelengths of BSA at 280 nm were monitored in protein binding studies using BSA ([…]) solution prepared in Tris-HCl buffer (pH 7.5), and the solution was stored in a dark place at 4 °C.
Interactions between the most common blood protein, serum albumin, and complexes have sparked a lot of interest recently because of their structural similarity to human serum albumin. To better understand the mechanism of interaction between BPA and its nickel(II) complex NiBPA with BSA, fluorescence quenching studies were carried out. BSA’s fluorescence is due to intrinsic protein characteristics, such as the presence of tryptophan and tyrosine residues. Variations in the emission spectra caused by protein conformational changes, subunit interaction, substrate binding, or denaturation are largely attributed to the tryptophan residue. As a result, BSA fluorescence behavior can provide valuable insight into protein structure, dynamics, and folding. Fluorescence titration experiments were performed at room temperature with BSA and different concentrations of BPA and NiBPA in the range 200–600 nm (λex. 280 nm). A slight red shift (40 percent, BPA; 65 percent, NiBPA; Figure 3) reduced the intensity of BSA fluorescence at 343 nm. The presence of the protein’s active site in a hydrophobic environment causes the redshift. […] The quenching mechanism can be set to either static or dynamic operation. Dynamic quenching occurs when the fluorophore and the quencher come into contact during the excited state’s transient existence, whereas static quenching is caused by the formation of a complex between the quencher and the fluorophore in the ground state. BSA (fluorophore) has a UV-vis absorption spectrum that can be used to investigate the type of quenching quickly and easily. […] The binding constants for BPA and NiBPA were calculated using Equation (1) and found to be 0.4 × 10^4 M^−1 and 0.82 × 10^4 M^−1, respectively (Table 1). […] Furthermore, the findings are in line with previous research on related compounds.
The Kq value is much higher than the 2 × 10^10 M^−1s^−1 maximum scatters collision quenching constant of quenchers with BSA (Kq = Ksv/τ0), where KSV is the Stern–Volmer constant and τ0 is the average lifetime of the BSA in the absence of the quencher (τ0 = 10 ns). This supports the idea of a static quenching mechanism. […] It is second order in [Q] and thus leads to upward curvy plots of I0/I versus [Q] at higher [Q].
The quenching constant (Kq) was calculated using the Stern–Volmer and Scatchard equation and plotted as I0/I vs. [Q] to better understand the quenching process (Figure 3). In addition, Scatchard Equation (2) was used to calculate the equilibrium binding constant:log[(I0 − I)/I] = log Kbin + n log [Q](2) where Kbin is the compound’s BSA binding constant and n is the number of binding sites. From the log (I0 − I)/I vs. log [Q] plot (Figure 5), the binding constant (Kbin) and the number of binding sites (n) have been calculated (Table 1). The estimated value of n (∼1) for BPA and NiBPA strongly supported the existence of a single binding site in BSA.

P. aeruginosa = experiment: Antibacterial MIC/MBC, P. aeruginosa; type: cell-based; settings: Gram-negative

## c1ccc(CNCc2ccccn2)nc1 [BPA, bis(2-picolyl)amine]
BSA [1]
  Kd: 0.25 mM
[2]
  IC50: 100 ± 1 µg/mL (≈ 502 µM)
E. faecalis
  MBC: 0 µg/mL
ct-DNA [3]; 1st step, 25 °C
  Ka1 (k1/k−1): 40.0 M⁻¹ and 40 M⁻¹
ct-DNA [3]; 1st step, 25 °C, read-out: Kd1 (k−1/k1)
  Kd: 25.6 mM
ct-DNA [3]; 2nd step, 25 °C
  K2 (2nd step): 0.29 ± 0.01 M⁻¹ s⁻¹
  Ka2 (k2/k−2): 47.5 M⁻¹
  k−2: 6.1 ± 0.3 10^−3s^−1
ct-DNA [3]; 25 °C
  k1 (1st step, second-order association constant): 27.0 ± 2.5 M⁻¹ s⁻¹
  k−1 (1st step, first-order dissociation constant): 0.69 ± 0.1 s⁻¹
ct-DNA [3]; overall
  Ka (overall binding): 1899 M⁻¹
ct-DNA [4]
  binding constant (ct-DNA): 16000 M⁻¹
[5]
  IC50: 237.2 ± 1.3 µg/mL (≈ 1190 µM)
E. coli
  MBC: 0 µg/mL
S. aureus
  MBC: 0 µg/mL
BSA [6]; BSA, 1st step, 25 °C
  Ka1 (k1/k−1): 73.5 M⁻¹
BSA [6]; BSA, 1st step, 25 °C, read-out: Kd1 (k−1/k1)
  Kd: 13.6 mM
BSA [6]; BSA, 1st step, ΔGbind = RT·ln(Kd)
  ΔG1: -2.53 kcal/mol
BSA [6]; BSA, 2nd step
  K2 (irreversible 2nd step): 0.82 M⁻¹
BSA [6]; BSA, 2nd step, 25 °C, irreversible step for BPA
  K2 (2nd step): Irreversible step with K2 = 0.82 ± 0.08 M^−1s^−1
BSA [6]; BSA, 2nd step, irreversibility
  k−2: ≈ 0
BSA [6]; BSA, 25 °C
  k−1 (1st step, first-order dissociation constant): 0.17 ± 0.0 s⁻¹
BSA [6]; bovine, read-out: k1 (1st step, second-order association constant)
  kon: 12.5 ± 1.1 M⁻¹ s⁻¹
BSA [7]; BSA binding constant from Scatchard equation
  Kbin: 0.25 10^4 M^−1
BSA [7]; Scatchard plot log (I0 − I)/I vs. log [Q]
  n (number of binding sites): 1.0
BSA [7]
  KSV: 2100 M⁻¹
BSA [7]; BSA fluorescence, λex 280 nm, room temperature
  KSV: 0.21 10^4 M^−1
BSA [7]; quenching constant, Kq = Ksv/τ0, τ0 = 10 ns
  Kq: 0.21 10^12 M^−1s^−1
BSA [7]; λex 280 nm, room temperature
  reduction of BSA fluorescence intensity at 343 nm: 40%
P. aeruginosa
  MBC: 0 µg/mL
